Values quoted from earlier work, collected in patent US20010022980A1, “Dietary supplement for individuals under stress” (Beth Israel Deaconess Medical Center, priority 1998, published 2001).

Tests used:
[1] = system: inflammation; conditions: rats
[2] = 20 g per day for five days, 3 g daily for remaining 9 weeks; weight training
[3] = soldiers, 24 g in a sports bar
[4] = 2 to 5 g per day
[5] = system: PCr; conditions: athletes; about 20 g during exercise
[6] = males and females; 20 g per day
[7] = system: tetanus toxoid; conditions: given during 14 days of training (glutamine 14 g)
[8] = system: explicit memory; conditions: college students; 25 grams; 90 minutes after ingestion

Compound: CCCCC/C=C\C/C=C\C/C=C\CCCCC(=O)O [GLA, γ-linoleic acid]
- cellular phase of inflammation (polymorphonuclear leukocyte accumulation, phagocytosis, and lysosomal enzyme activity) [1]: suppressed

Compound: CN(CC(=O)O)C(=N)N.O [creatine monohydrate]
- increase in fat free mass [2]: 4.4%
- increase in intracellular water [2]: 3.2%
- increase in total body water [2]: 5%
- strength (bench press and squat exercises) [2]: significant increase
- increase in body mass [3]: 1.5 kg
- increase in total repetitions over five sets of bench presses [3]: 14.4%
- reduction of time to complete an obstacle course ([3]; not significant): 7.6 ± 8.2 s
- decrease in body fat ([3]; p <0.05): 0.6%

Compound: CN(CC(=O)O)C(=N)N [creatine]
- muscle creatine content [4]: increases
- resynthesis of PCr after exercise [5]: rapid resynthesis
- blood pressure [6]: no change
- body fat [6]: no change
- lean body mass determined by DEXA [6]: increased
- plasma creatine kinase [6]: no change

Compound: NC(=O)CC[C@H](N)C(=O)O [glutamine]
- percentage of soldiers who had an induration >10 mm in response to tetanus toxoid [7]: 50%

Compound: NCC(=O)O [glycine, reference compound]
- percentage of soldiers who had an induration >10 mm in response to tetanus toxoid [7]: 30%

Compound: phosphatidylcholine
- explicit memory (serial learning task) [8]: improve explicit memory
